From the NIST ThermoML archive (doi:10.1016/j.jct.2007.05.011)

Experiment: xn = mol fraction of the nth substance listed
Settings: 101 kPa, Liquid; for mass density: Vibrating tube method

NCCO.O=CO [2-hydroxyethylammonium formate] + CCO
Settings	mass density, 308.15 K [kg/m3]	mass density, 310.65 K [kg/m3]	mass density, 313.15 K [kg/m3]	mass density, 315.65 K [kg/m3]	speed of sound, 305.65 K [m/s]	speed of sound, 308.15 K [m/s]	speed of sound, 310.65 K [m/s]	speed of sound, 313.15 K [m/s]
x2 = 0	1169.39	1167.62	1165.84	1164.06	1690.8	1684.8	1678.7	1672.7
x2 = 0.058	1159.76	1158.11	1156.45	1154.81	1704.7	1699.5	1694.4	1689.2
x2 = 0.098	1147.72	1146.06	1144.4	1142.73	1685.5	1680.2	1674.9	1669.8
x2 = 0.193	1122.18	1120.49	1118.8	1117.11	1642.7	1637.3	1631.8	1626.3
x2 = 0.296	1096.28	1094.56	1092.84	1091.12	1598.7	1593	1587.4	1581.7
x2 = 0.399	1065.47	1063.71	1061.95	1060.19	1545.2	1539.2	1533.3	1527.4
x2 = 0.5	1030.18	1028.38	1026.57	–	1485.4	1479.2	1473	1466.8
x2 = 0.598	991.781	989.927	988.066	–	1421.8	1415.2	1408.7	1402.2
x2 = 0.701	948.127	946.21	944.29	–	1353.1	1346.1	1339.3	1332.3
x2 = 0.799	898.707	896.716	894.718	–	1281.3	1274	1266.7	1259.3
x2 = 0.9	842.788	840.709	838.621	–	1206.1	1198.3	1190.5	1182.7
x2 = 0.95	811.783	809.653	807.511	–	1165.7	1157.6	1149.5	1141.4
